According to patent publication US8927717B1, “Thiochromeno[2,3-c]quinolin-12-one derivatives, preparation method and application thereof” (National Defense Medical Center, priority 2014, dated 2015):

What was measured:
[1] = target: T1, TOP II (Topoisomerase II) (Homo sapiens, UniProt P11388); assay: TOP II-catalyzed relaxation of plasmid DNA assay; format: biochemical; conditions: for IC50: five different concentrations, TopoGEN TG2005H, TG-2000H-1, read-out: IC50 value, TOP II mediated supercoiled DNA relaxation; for inhibitory effect in TOP II relaxation assay compared with VP-16: primary assay at 25 and/or 50 μM
T1 construct: purchased TopoGEN TG-2000H-1
T1 sequence (P11388 whole entry): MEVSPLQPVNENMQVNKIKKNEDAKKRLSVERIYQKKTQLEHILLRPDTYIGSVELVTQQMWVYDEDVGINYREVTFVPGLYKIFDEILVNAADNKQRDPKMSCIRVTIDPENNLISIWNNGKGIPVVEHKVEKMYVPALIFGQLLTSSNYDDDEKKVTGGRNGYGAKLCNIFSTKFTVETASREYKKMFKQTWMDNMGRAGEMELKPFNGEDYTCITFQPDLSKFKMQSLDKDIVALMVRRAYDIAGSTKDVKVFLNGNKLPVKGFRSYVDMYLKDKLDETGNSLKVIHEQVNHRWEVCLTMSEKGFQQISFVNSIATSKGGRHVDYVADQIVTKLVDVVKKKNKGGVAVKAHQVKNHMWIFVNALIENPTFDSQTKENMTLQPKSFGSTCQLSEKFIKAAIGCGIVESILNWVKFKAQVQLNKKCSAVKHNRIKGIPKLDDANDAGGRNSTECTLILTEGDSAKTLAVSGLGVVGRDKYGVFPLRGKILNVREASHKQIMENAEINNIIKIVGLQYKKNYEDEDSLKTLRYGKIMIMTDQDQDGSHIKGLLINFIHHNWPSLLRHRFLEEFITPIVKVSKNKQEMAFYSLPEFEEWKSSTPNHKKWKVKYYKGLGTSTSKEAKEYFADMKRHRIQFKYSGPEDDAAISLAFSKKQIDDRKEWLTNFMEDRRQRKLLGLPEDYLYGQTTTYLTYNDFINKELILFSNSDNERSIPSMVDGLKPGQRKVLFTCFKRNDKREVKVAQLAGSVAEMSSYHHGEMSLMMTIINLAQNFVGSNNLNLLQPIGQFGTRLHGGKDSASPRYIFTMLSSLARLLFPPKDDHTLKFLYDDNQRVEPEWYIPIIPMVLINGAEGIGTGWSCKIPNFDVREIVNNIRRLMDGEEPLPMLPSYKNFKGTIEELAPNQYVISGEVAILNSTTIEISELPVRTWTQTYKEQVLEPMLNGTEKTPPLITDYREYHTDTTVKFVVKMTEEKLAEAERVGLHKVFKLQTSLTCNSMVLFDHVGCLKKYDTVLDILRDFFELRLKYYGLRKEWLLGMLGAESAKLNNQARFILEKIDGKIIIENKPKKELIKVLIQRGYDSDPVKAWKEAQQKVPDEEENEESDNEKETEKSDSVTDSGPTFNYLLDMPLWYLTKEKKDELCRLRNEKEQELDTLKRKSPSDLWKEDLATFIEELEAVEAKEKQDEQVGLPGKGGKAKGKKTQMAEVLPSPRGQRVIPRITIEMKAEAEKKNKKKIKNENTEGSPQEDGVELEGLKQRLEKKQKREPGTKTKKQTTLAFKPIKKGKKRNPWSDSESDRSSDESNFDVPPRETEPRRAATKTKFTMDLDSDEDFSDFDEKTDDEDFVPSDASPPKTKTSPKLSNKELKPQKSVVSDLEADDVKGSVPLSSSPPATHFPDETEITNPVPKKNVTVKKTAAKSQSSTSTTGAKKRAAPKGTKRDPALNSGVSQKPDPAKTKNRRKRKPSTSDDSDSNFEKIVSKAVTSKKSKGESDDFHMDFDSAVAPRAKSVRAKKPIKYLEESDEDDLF
Protocol: We also performed TOP II-catalyzed relaxation of plasmid DNA assays (FIG. 5-7) to evaluate if compounds could inhibit TOP II. […] The IC50 value of compounds 7, N7, N8, N14, N15, N18, and N19 were about 10, 10, 1, 10, 5, 1, and 1 μM, respectively (detect by TopoGEN TG2005H, TG-2000H-1).

TOP I (Topoisomerase I) [2] = target: T2, TOP I (Topoisomerase I) (Homo sapiens, UniProt P11387); assay: TOP I mediated supercoiled DNA relaxation assay; format: biochemical; conditions: primary assay at 25 and/or 50 μM
T2 construct: purchased TopoGEN TG2005H
T2 sequence (P11387 1-765): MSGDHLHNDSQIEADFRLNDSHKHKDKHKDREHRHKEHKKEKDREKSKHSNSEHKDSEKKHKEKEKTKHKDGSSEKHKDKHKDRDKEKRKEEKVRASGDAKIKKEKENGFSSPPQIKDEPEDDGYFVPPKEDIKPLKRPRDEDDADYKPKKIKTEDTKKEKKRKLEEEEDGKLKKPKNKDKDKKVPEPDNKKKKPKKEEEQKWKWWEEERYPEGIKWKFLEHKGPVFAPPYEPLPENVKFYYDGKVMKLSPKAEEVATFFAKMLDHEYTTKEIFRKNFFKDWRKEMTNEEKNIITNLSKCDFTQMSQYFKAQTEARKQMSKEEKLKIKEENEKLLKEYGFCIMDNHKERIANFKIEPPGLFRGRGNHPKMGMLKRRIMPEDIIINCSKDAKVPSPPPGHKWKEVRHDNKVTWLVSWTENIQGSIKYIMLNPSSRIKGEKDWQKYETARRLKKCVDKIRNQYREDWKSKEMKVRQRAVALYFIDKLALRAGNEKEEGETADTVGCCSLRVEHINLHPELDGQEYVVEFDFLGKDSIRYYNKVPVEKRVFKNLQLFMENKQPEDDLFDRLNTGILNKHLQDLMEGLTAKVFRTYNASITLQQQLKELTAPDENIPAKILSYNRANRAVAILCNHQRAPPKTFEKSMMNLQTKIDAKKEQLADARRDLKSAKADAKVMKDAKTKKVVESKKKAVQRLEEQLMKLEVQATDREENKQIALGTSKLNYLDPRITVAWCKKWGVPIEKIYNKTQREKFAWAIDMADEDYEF
Protocol: According to the cell cytotoxicity, compounds 5, 7, 8, 16, 19, N2, N7, N8, N9, N14-N19, and N25 were also selected for primary TOP I and II activities assays at 25 and/or 50 μM (FIG. 2-4).

TOP I (Topoisomerase I) [3] = target: T2, TOP I (Topoisomerase I); assay: TOP I mediated supercoiled DNA relaxation assay; format: biochemical; conditions: five different concentrations; TopoGEN TG2005H, TG-2000H-1

Row | Structure (SMILES) | IC50 [1] [µM] | inhibitory effect in TOP II relaxation assay compared with VP-16 [1] | melting point [°C] | inhibitory effect in TOP I activity assay compared with CPT (TOP I (Topoisomerase I) [2]) | IC50 (TOP I (Topoisomerase I) [3]) [µM]
1 | CCN(CC)CCNc1nc2ccccc2c2c(=O)c3cc(Cl)ccc3sc12 [Compound N8, 10-Chloro-6-((2-(diethylamino)ethyl)amino)-12H-thiochromeno[2,3-c]quinolin-12-one] | ~1 | more potent inhibitory effects than the positive agent VP-16 | 152 to 153 |  | 
2 | O=c1c2cc(Cl)ccc2sc2c(NCCNCCO)nc3ccccc3c12 [Compound N15, 10-Chloro-6-((2-((2-hydroxyethyl)amino)ethyl)amino)-12H-thiochromeno[2,3-c]quinolin-12-one] | ~5 | more potent inhibitory effects than the positive agent VP-16 | 141 to 143 | more potent inhibitory effects than CPT | ~5
